Experiment in all cases: inhibition of tumour cell growth, NCI panel, 48 h
Assay [1] has as its system SF-539 CNS.
Assay [2] relates to SF-268 CNS.
The test system of assay [3] is M14 melanoma.
Assay [4] relates to RPMI-8226 leukemia.
In assay [5] the test system is HOP-62 NSCLC.
In assay [6] the test system is MALME-3M melanoma.
In assay [7] the test system is LOX IMVI melanoma.
For assay [8], the system named is SK-MEL-2 melanoma.
The test system of assay [9] is SK-MEL-5 melanoma.

Several values for one entry are separate records, joined by “and”; a condition that tells them apart may be missing. Equal values may be shown once.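 Values below derive from 48-hour exposures of cells grown in 96-well plates, with endpoints linearly interpolated between the two concentrations bracketing the appropriate inhibition level. At the GI50, growth is halved. At the TGI there is no net growth.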 A value given as a limit tells only on which side of the number the result lay.

For the compound `Cc1[nH]c(=O)nc2[nH][nH]c(=O)c12`, the TGI in assay [1], in assay [2], in [3], in assay [4], in assay [5] and in assay [6] was over 100 µM throughout. Also, the TGI in [7] and in assay [8] was over 100 µM throughout.

As for `O=C1C2C3C=C4c5ccccc5N(c5ccccc5)C4(C2C(=O)N1c1ccc([N+](=O)[O-])cc1)[C@H]1C(=O)N(c2ccc([N+](=O)[O-])cc2)C(=O)[C@@H]31` (some centres not stated), the TGI in assay [9], in [1], in assay [2], in [3], in [4] and in [5] was over 100 µM in each case. Moreover, the TGI in assay [6], in [7] and in assay [8] was over 100 µM each time.

For the compound `Clc1cc(Cl)c2ns[s+]c2c1Cl`, the TGI in [9], in assay [1], in assay [2], in assay [3], in assay [5] and in assay [6] was over 100 µM in each case. The TGI in assay [7] and in assay [8] was over 100 µM in each case.

On to `CCOC(=O)C1SC(=Nc2ccc(C)c(C)c2)N=C1C` (configuration not stated), for which the TGI in [9], in [1], in assay [2], in assay [3], in assay [4] and in assay [5] was over 100 µM each time. For the same compound, the TGI in assay [6], in assay [7] and in [8] was over 100 µM throughout.

For `O=C(/C=C/c1ccc(Cl)c(Cl)c1)c1ccc2ccccc2c1`, the TGI in assay [9], in [1], in assay [2], in [3], in assay [4] and in assay [5] was over 100 µM in each case. Also, the TGI in assay [6], in [7] and in [8] was over 100 µM in each case.

Consider `COc1ccc2c3c([nH]c2c1[N+](=O)[O-])C(C)N(C)CC3` (configuration not stated), for which the TGI in assay [9], in assay [1], in [3], in assay [4], in [5] and in assay [6] was over 100 µM throughout. For the same compound, in assay [8], the TGI is over 100 µM.

For `O=C(N/N=C/c1cc(Br)ccc1O)N/N=C/c1cc(Br)ccc1O`, the TGI in assay [9], in [1], in assay [2], in assay [5], in assay [6] and in [7] was over 100 µM each time.

As for `Cn1c(O)c(C(=O)NC2CCCCC2)c(=O)n(C)c1=S`, the TGI in [9] was determined as 17 µM; in assay [1] it was 21.4 µM; in assay [2] it was 21.6 µM; in assay [3], 21.4 µM; in assay [4], 17.2 µM; in [5], 16.8 µM. Further, the figures for the TGI in [7] and in assay [8] were 28.5 µM and 15 µM, respectively.

On to `COc1cc(Cc2nccc3cc(OC)c(OC)cc23)c(C(C)=O)cc1OC`, for which the GI50 was 25.6 µM and 130 µM in assay [9]; 85.3 µM and 19.9 µM in assay [1]; 101 µM in [5]; 72.1 µM and 22.6 µM in assay [6]; 150 µM and 94 µM in assay [7]. In addition, the TGI in assay [9] was 139 µM and 486 µM; in [1] it was > 94.9 µM and 66.1 µM; in assay [2] it was 419 µM; in assay [3] it was over 750 µM; in assay [4], 265 µM and > 750 µM; in assay [5] it was 135 µM and 394 µM. In addition, the TGI in assay [6] was 64.1 µM and 158 µM; in assay [7] it was 300 µM and > 750 µM; in [8], 300 µM.

Take `COC(=O)C(CC(=O)Nc1ccc(C)cc1)C(=O)C(=O)Nc1c(C(C)C)cccc1C(C)C` (configuration not stated): the TGI in assay [1], in assay [2], in assay [3], in assay [4], in [5] and in [6] was over 100 µM each time. Further, the TGI in [7] and in [8] was over 100 µM each time.

In the case of `Cc1cc(NS(=O)(=O)c2ccc(Nc3c4ccccc4nc4c(C(=O)N5CCN(CCO)CC5)cccc34)cc2)no1`, the TGI in assay [9], in assay [1], in assay [2], in assay [3], in assay [5] and in [6] was over 100 µM each time. Moreover, the TGI in assay [7] and in [8] was over 100 µM in each case.

As for `CCCC1=C(CC)C(C(=O)Nc2c(C)cccc2C)=NC(S)N1` (configuration not stated), the TGI in [9], in assay [1], in assay [2], in [3], in assay [4] and in [5] was over 100 µM in each case. Further, the TGI in [6] and in [8] was over 100 µM throughout.

In the case of `O=C(Nc1ccccc1-c1nc2ccccc2[nH]c1=O)c1ccccc1`, the TGI was over 100 µM in [9]; 49.6 µM in assay [1]; 64.8 µM in [2]; over 100 µM in assay [3]; 44.9 µM in assay [4]; 35.9 µM in [5]. For the same compound, the TGI turned out to be 92.7 µM in assay [6], 61.9 µM in [7] and 56 µM in [8].

Turning to `CCCN(CCC)C(=O)c1c([N+](=O)[O-])cc(C(F)(F)F)cc1[N+](=O)[O-]`, the TGI in assay [1], in [2], in assay [3], in [4], in assay [5] and in assay [7] was over 100 µM each time. Moreover, the TGI in assay [8] is over 100 µM.

Take `CC1=CC(C)(C)N=C2SC(c3ccc(N)cc3)=NN12`: the TGI in assay [9] was over 100 µM; in [1], over 100 µM; in [2], over 100 µM; in assay [3], over 100 µM; in assay [4], over 66.3 µM; in assay [5], over 100 µM. Further, the TGI in [6], in [7] and in [8] was over 100 µM each time.

(Values after PubChem BioAssay (NCI).)
